The conditions of data set [1]: open vial, 40° C. and 75±5% relative humidity. How it is done: The aim of the study is to evaluate the stability of cocrystal Form I of the present invention.
Cocrystal Form I of the present invention obtained by the process disclosed in section 1.1.B.1.
Cocrystal Form I (55 mg) is stored in an open vial and exposed to accelerated stability conditions (40° C. and 75±5% relative humidity) according to ICH guidelines (Guidance for Industry Q1A(R2) Stability Testing of New Drug Substances and Products—available on the website http://www.ich.org/products/guidelines/quality/quality-single/article/stability-testing-of-new-drug-substances-and-products.html on Aug. 4, 2017).

The conditions of data set [2]: in humans; cited from earlier work.

Turning to `C=C(C)[C@@H]1CCC(C)=C[C@H]1c1c(O)cc(CCCCC)cc1O.O=C(O)[C@@H]1CCCN1` [cocrystal Form I, cocrystal of 2-[(1R,6R)-6-isopropenyl-3-methylcyclohex-2-en-1-yl]-5-pentylbenzene-1,3-diol with L-proline], the “stability (solid form)” value in data set [1] is given as “remained stable for at least three weeks”. Turning to `C=C(C)[C@@H]1CCC(C)=C[C@H]1c1c(O)cc(CCCCC)cc1O` [CBD, 2-[(1R,6R)-6-isopropenyl-3-methylcyclohex-2-en-1-yl]-5-pentylbenzene-1,3-diol], the oral bioavailability in data set [2] is reported as 6-33%.

The record behind these values is US11168047B2, “Cocrystal of 2-[(1R,6R)-6-isopropenyl-3-methylcyclohex-2-en-1-yl]-5-pentylbenzene-l,3-diol” (ENANTIA, S.L., priority 2017, dated 2021).
